Assay [1] concerns the target T1, recombinant rat A2b adenosine receptors (Rattus norvegicus, UniProt P29276).
T1 construct: expressed in transfected cells; host or cells: HEK-293
T1 sequence (P29276 1-332): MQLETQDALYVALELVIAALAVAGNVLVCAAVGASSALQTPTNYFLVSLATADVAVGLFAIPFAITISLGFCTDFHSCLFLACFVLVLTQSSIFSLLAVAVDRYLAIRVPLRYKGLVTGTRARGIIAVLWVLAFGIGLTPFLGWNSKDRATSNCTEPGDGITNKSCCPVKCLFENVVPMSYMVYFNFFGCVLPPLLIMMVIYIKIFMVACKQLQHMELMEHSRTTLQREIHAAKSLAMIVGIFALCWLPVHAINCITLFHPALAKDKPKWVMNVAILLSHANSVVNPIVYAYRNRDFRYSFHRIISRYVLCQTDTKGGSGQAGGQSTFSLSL
As to the kind of experiment: FLIPR calcium functional assay, rat A2b receptor in HEK-293 cells (NECA). The assay is classed as cell-based. The following applies: HEK293 cells. As to the method:
FIG. 10 depicts FLIPR assay of BG9928 with recombinant […] A2b adenosine receptors stably expressed in HEK-293 cells. FLIPR assays measuring the fraction of control response observed with 10, 100, and 300 nM BG9928 in HEK-293 cells expressing rat A2b adenosine receptors in the presence of increasing concentrations of the agonist (NECA) (top graph). The bottom graph is a Schild analysis of the data presented in the top graph.
Cells were seeded into 96-well tissue culture plates with black walls and clear bottoms, and cultured to an […] confluent monolayer. Without removing the media, an equal volume of dye (from calcium assay kit purchased from Molecular Devices) was added. Cell plates were incubated for 1 hour at 37° C. and were then transferred to the-FLIPR unit (Molecular Devices). […]
The FLIPR integrates an argon laser excitation source, a 96-well pipettor, and a detection system utilizing a CCD (Charged Coupled Device) imaging camera. Fluorescence emissions from the 96 wells were monitored simultaneously at excitation and emission wavelength of 488 and 520 nm, respectively. Fluorescence data were collected at 0.1-sec intervals before and after simultaneous rapid addition of compounds to the 96-well plate. Results were read as relative fluorescence units (RFU). […]

Assay [2] addresses T2, recombinant canine A3 adenosine receptors (Canis lupus familiaris, UniProt Q28309).
T2 construct: expressed in transfected cells
T2 sequence (Q28309 1-314): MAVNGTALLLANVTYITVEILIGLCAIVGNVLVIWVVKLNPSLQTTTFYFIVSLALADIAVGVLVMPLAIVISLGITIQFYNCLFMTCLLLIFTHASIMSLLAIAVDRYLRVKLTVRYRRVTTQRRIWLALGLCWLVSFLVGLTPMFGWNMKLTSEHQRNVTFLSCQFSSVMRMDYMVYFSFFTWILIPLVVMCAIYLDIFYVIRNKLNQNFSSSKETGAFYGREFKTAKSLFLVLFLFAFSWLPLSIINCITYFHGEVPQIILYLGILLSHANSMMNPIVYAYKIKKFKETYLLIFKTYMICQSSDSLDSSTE
The assay is described as follows: Radioligand competition binding, canine A3 receptor (R-PIA), transfected HEK 293 membranes. As to conditions: mean ± SEM, n = 3. On the procedure:
Membranes (40-70 μg membrane protein), radioligands, and varying concentrations of competing ligands were incubated in triplicate in 0.1 ml buffer HE plus 2 units/mL adenosine deaminase for 2.5 hours at 21° C. The radioligands used for competitive binding assays were: [^3H]-8-cyclopentyl-1,3-dipropyxanthine ([^3H]-DPCPX) (NEN, Boston, Mass.) for A1 and A2b adenosine receptors, [^3H]-4-(2-[7-amino-2-(furyl)(1,2,4)triazole(2,3-a)(1,3,5)triazin-5-ylaminoethyly)phenol ([^3H] ZM241385) for A2a adenosine receptors (Tocris, Bristol, UK), and [^125Iodine]-labeled N6-(4-aminobenzyl)-9-(5-(methylcarbonyl)-β-D-ribofuranosyl) adenine ([^125I]-AB-MECA) or [^3H]-R-N^6-phenylisopropyladenosine (H^3R]-R-PIA) for A3 adenosine receptors (both from NEN, Boston, Mass.). Nonspecific binding was measured in the presence of 10 μM 5′N ethylcarboxamidoadenosine (NECA, from RBI-Sigma, Natick, Mass.) for A1 and A2b receptors, or 10 μM xanthine amino congener (XAC, from RBI-Sigma, Natick, Mass.) for A2a receptors. Binding assays were terminated by filtration over Whatman GF/C glass fiber filters using a BRANDEL cell harvester (Gaithersburg, Md.). The-filters were rinsed three times with 3-4 mL ice-cold 10 mM Tris-HCl, pH 7.4 and 5 mM magnesium chloride (MgCl2) at 4° C., and were counted in a Wallac β-counter (Perkin Elmer, Boston, Mass.).
For orientation: In a radioligand displacement assay an active substance lowers the binding of a labelled ligand.

Assay [3] deals with open-chest, barbital-anesthetized dogs. The assay is described as follows: Protocol III (reperfusion): 60 minutes occlusion and 3 hours reperfusion, drug from 10 minutes before release of occlusion, dogs. The assay is classed as in vivo, dog.
Experimental: The studies were performed in open-chest, barbital-anesthetized dogs instrumented to measure heart rate, blood pressure, left ventricular pressure, and regional myocardial blood flow (radioactive microspheres). A mechanical occluder was placed around a proximal portion of the left anterior descending coronary artery to produce ischemia and reperfusion. At the end of the experiments, infarct size was determined-by histochemical staining (patent blue dye and triphenyltetrazolium) and expressed as a percentage of the region at risk or as a percentage of the entire left ventricle.
In the reperfusion protocol (see FIG. 3, protocol III), the dogs were subjected to 60 minutes of coronary artery occlusion followed by three hours of reperfusion. […] The antagonists were administered at a dose of 1 mg/kg i.v. bolus followed by an infusion of 10 μg/kg/min for one hour.
Assay [4] concerns the target T3, human A2B adenosine receptors (Homo sapiens, UniProt P29275).
T3 sequence (P29275 1-332): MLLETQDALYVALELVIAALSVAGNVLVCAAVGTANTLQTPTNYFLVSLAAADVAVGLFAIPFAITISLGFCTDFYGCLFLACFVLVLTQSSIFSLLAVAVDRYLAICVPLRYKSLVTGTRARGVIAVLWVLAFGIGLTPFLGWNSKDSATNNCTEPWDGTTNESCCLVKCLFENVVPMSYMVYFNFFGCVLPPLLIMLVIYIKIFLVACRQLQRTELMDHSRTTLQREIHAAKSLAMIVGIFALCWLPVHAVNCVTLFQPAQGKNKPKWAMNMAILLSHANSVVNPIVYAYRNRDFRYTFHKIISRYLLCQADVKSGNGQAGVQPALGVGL
The assay is described as follows: FLIPR calcium functional assay, human A2b receptor in HEK-293 cells (5 μM NECA). The assay is classed as cell-based. Details: expressed in transfected cells; host or cells: HEK-293. As to conditions: HEK293 cells, null method.
Experimental: Cells were seeded into 96-well tissue culture plates with black walls and clear bottoms, and cultured to an 80-0.90% confluent monolayer. Without removing the media, an equal volume of dye (from calcium assay kit purchased from Molecular Devices) was added. Cell plates were incubated for 1 hour at 37° C. and were then transferred to the-FLIPR unit (Molecular Devices).
For assay of recombinant human and rat A2b adenosine receptors, HEK-293 cells were incubated with increasing doses of agonist (5′N-ethylcarboxamidoadenosine, NECA) to determine the concentration of agonst that produced 50% of a maximum response.
The FLIPR integrates an argon laser excitation source, a 96-well pipettor, and a detection system utilizing a CCD (Charged Coupled Device) imaging camera. […] Fluorescence data were collected at 0.1-sec intervals before and after simultaneous rapid addition of compounds to the 96-well plate. Results were read as relative fluorescence units (RFU).
In FLIPR functional assays, agonist concentration-response curves were fitted to a logistic equation by use of the nonlinear regression program in Prizm GraphPad. […] A Schild analysis was performed to estimate the potency of the compounds as antagonists (pA2). […]

The values below come from patent US20050203065A1, “Method of treating ischemia reperfusion injury using adenosine receptor antagonists” (priority 2002, published 2005).

One may read the pA2 as the negative logarithm of the molar antagonist concentration that doubles the agonist concentration needed for the same response. In general, Ki refers to a measure of affinity in units of concentration, obtained from inhibition or displacement. In the case of `CCCn1c(=O)c2[nH]c(C34CCC(CCC(=O)O)(CC3)CC4)nc2n(CCC)c1=O` [BG 9928, 3-[4-(2,6-dioxo-1,3-dipropyl-2,3,6,7-tetrahydro-1H-purin-8-yl)-bicyclo[2.2.2]oct-1-yl]-propionic acid], in assay [1] (rat A2b, Schild analysis), the pA2 is reported as 6.59. Besides, the Kb in assay [1] (rat, null methodology) came out at 0.257 µM; in assay [4], 0.00336 µM. The inhibition constant Ki in assay [2] turned out to be 37.7 µM. The “Infarct size expressed as a percentage of the entire left ventricle, in words” value in assay [3] is reported as “a significant reduction in infarct size was not observed”. For the same compound, the “Relationship between infarct size and collateral blood flow compared to control group” value in assay [3] is “shifted downward”. Moreover, the “Reduction in infarct size (percentage of the risk region)” value in assay [3] (1 mg/kg i.v. bolus + 10 μg/kg/min for one hour from 10 minutes before release of occlusion) is reported as 44%. Further, the “Infarct size expressed as a percentage of the risk region, in words” value in assay [3] (administration during the early phase of reperfusion) is recorded as “reduced significantly”.
